Series [1] is described as follows: PK analysis in rats. The series is classed as in vivo. The following applies: male, Sprague-Dawley, rat, plasma, po, 100 mg/kg.
Series [2] is described as follows: Water solubility by UV-vis. To be noted: deionized water, 20 °C, thermodynamic from solid.

Structures are written as SMILES. ≈ marks a conversion by molar mass, not a printed value.

`C=C(c1ccc(C(=O)O)cc1)c1cc2c(cc1C)C(C)(C)CCC2(C)C` [Compound 1, bexarotene]: in series [1], the AUC is 51500 ng·h/mL, the AUC(0-inf) is 54300 ng·h/mL, the AUC(0-t) is 51500 ng·h/mL and the time to peak (Tmax) is 2 h. Also, the solubility at 24 h in series [2] amounted to 0.28 ± 0.02 µM (≈ 0.0976 µg/mL).

Usually AUC stands for the area under the concentration-time curve, a measure of exposure. By AUC(0-inf) is commonly meant the area under the concentration-time curve extrapolated to infinity. As a reminder, the AUC(0-t) is the area under the concentration-time curve up to a stated or last time point. As usually defined, the Tmax is the time from dosing to the highest level. For orientation: solubility means the dissolved amount per volume that the medium holds. The low end stands for a poorly soluble substance, the high end for a readily soluble substance.

The values are drawn from paper PMC4448986 (Pharmacology Research & Perspectives, 2015).
